Experimental data published in patent US10947188B2, “Small molecule ferroptosis inducers” (THE TRUSTEES OF COLUMBIA UNIVERSITY IN THE CITY OF NEW YORK, priority 2016, dated 2021).

Assays:
HT-1080 = assay: Modulatory profiling: Alamar Blue viability, lethal compound cotreated with death modulator (EC50, AUC); format: cell-based; parameters: AUC, modulator HT.3MA / AUC, modulator HT.ALLN / AUC HT.ATA / AUC HT.ActD / AUC HT.BHA / AUC HT.BHT / AUC HT.BocD / AUC HT.CHX / AUC HT.Co2+ / AUC HT.DPQ / AUC HT.EGTA / AUC HT.Lmim / AUC HT.NAD+ / AUC HT.Nec-1 / AUC HT.SP600125 / AUC HT.TLCK / AUC HT.U0126: unit not given beside the values; conditions: for AUC HT.ATA: HT-1080, modulator ATA; for AUC HT.ActD: HT-1080, modulator ActD; for AUC HT.BHA: HT-1080, modulator BHA; for AUC HT.BHT: HT-1080, modulator BHT; for AUC HT.BocD: HT-1080, modulator BocD; for AUC HT.CHX: HT-1080, modulator CHX; for AUC HT.Co2+: HT-1080, modulator Co2+; for AUC HT.CspA: HT-1080, modulator CspA; for AUC HT.DPQ: HT-1080, modulator DPQ; for AUC HT.EGTA: HT-1080, modulator EGTA; for AUC HT.Gd3+: HT-1080, modulator Gd3+; for AUC HT.LNAME: HT-1080, modulator LNAME; for AUC HT.Lmim: HT-1080, modulator Lmim; for AUC HT.NAD+: HT-1080, modulator NAD+; for AUC HT.NMMA: HT-1080, modulator NMMA; for HT.atoc (AUC) / HT.bCarotene (AUC) / HT.deferox (AUC) / HT.digoxin (AUC) / HT.trolox (AUC) / HT.zVAD (AUC): HT-1080; for HT.atoc (AUC): modulator atoc; for HT.bCarotene (AUC): modulator bCarotene; for HT.deferox (AUC): modulator deferox; for HT.digoxin (AUC): modulator digoxin; for HT.trolox (AUC): modulator trolox; for HT.zVAD (AUC): modulator zVAD
BJeLR = assay: as above; format: cell-based, human; parameters: AUC, modulator BJ.Gd3+ / AUC, modulator BJ.LNAME / AUC, modulator BJ.Lmin / AUC, modulator BJ.3MA / AUC, modulator BJ.ALLN / AUC, modulator BJ.Boc D / AUC, modulator BJ.CHX / AUC, modulator BJ.Co2+ / AUC, modulator BJ.Nec-1 / AUC, modulator BJ.Pepstatin / AUC, modulator BJ.TLCK / AUC, modulator BJ.atoc / AUC, modulator BJ.trolox / AUC, modulator BJ.zVAD: unit not given beside the values; conditions: BJeLR cells, modulatory profile value (AUC); for AUC, modulator BJ.3MA: lethal compound cotreated with modulator 3MA; for AUC, modulator BJ.ALLN: lethal compound cotreated with modulator ALLN; for AUC, modulator BJ.Boc D: lethal compound cotreated with modulator Boc D; for AUC, modulator BJ.CHX: lethal compound cotreated with modulator CHX; for AUC, modulator BJ.Co2+: lethal compound cotreated with modulator Co2+; for AUC, modulator BJ.DPQ: lethal compound cotreated with modulator DPQ; for AUC, modulator BJ.Gd3+: lethal compound cotreated with modulator Gd3+; for AUC, modulator BJ.LNAME: lethal compound cotreated with modulator LNAME; for AUC, modulator BJ.Lmin/NAD+: lethal compound cotreated with modulator Lmin/NAD+; for AUC, modulator BJ.Lmin: lethal compound cotreated with modulator Lmin; for AUC, modulator BJ.NAD+: lethal compound cotreated with modulator NAD+; for AUC, modulator BJ.NMMA: lethal compound cotreated with modulator NMMA; for AUC, modulator BJ.Nec-1: lethal compound cotreated with modulator Nec-1; for AUC, modulator BJ.Pepstatin: lethal compound cotreated with modulator Pepstatin; for AUC, modulator BJ.TLCK: lethal compound cotreated with modulator TLCK

## CCOc1ccccc1-n1c(C(C)N2CCN(C(=O)COc3ccc(Cl)cc3)CC2)nc2ccccc2c1=O (stereo not shown) [erastin, reference compound]
HT-1080
  AUC HT.ATA: −0.1315
  AUC HT.ActD: −0.1111
  AUC HT.BHA: 0.1748
  AUC HT.BHT: 0.1243
  AUC HT.BocD: −0.003341
  AUC HT.CHX: 0.05504
  AUC HT.Co2+: −0.2142
  AUC HT.CspA: 0.02449
  AUC HT.DPQ: 0.05672
  AUC HT.EGTA: 0.01444
  AUC HT.Gd3+: −0.01326
  AUC HT.LNAME: −0.008731
  AUC HT.Lmim: 0.2178
  AUC HT.NAD+: −0.02996
  AUC HT.NMMA: 0.006826
  HT.atoc (AUC): 0.2643
  HT.bCarotene (AUC): −0.0215
  HT.deferox (AUC): 0.3025
  HT.digoxin (AUC): −0.03393
  HT.trolox (AUC): 0.2077
  HT.zVAD (AUC): −0.07207
HT-1080; HT-1080, modulator Nec-1
  AUC HT.Nec-1: −0.02551
HT-1080; HT-1080, modulator Pepstatin
  AUC HT.Pepstatin: −0.02573
HT-1080; HT-1080, modulator SP600125
  AUC HT.SP600125: −0.03688
HT-1080; HT-1080, modulator TLCK
  AUC HT.TLCK: 0.1167
HT-1080; HT-1080, modulator U0126
  AUC HT.U0126: 0.1525
HT-1080; HT-1080 cells, lethal compound cotreated with modulator 3MA, modulatory profile value (AUC)
  AUC, modulator HT.3MA: −0.04578
HT-1080; HT-1080 cells, lethal compound cotreated with modulator ALLN, modulatory profile value (AUC)
  AUC, modulator HT.ALLN: −0.06856
BJeLR
  AUC, modulator BJ.3MA: 0.09348
  AUC, modulator BJ.ALLN: −0.05751
  AUC, modulator BJ.Boc D: −0.0006165
  AUC, modulator BJ.CHX: 0.09081
  AUC, modulator BJ.Co2+: −0.1704
  AUC, modulator BJ.DPQ: −0.005058
  AUC, modulator BJ.Gd3+: −0.0388
  AUC, modulator BJ.LNAME: −0.03971
  AUC, modulator BJ.Lmin/NAD+: 0.1538
  AUC, modulator BJ.Lmin: 0.1115
  AUC, modulator BJ.NAD+: −0.02334
  AUC, modulator BJ.NMMA: −0.05625
  AUC, modulator BJ.Nec-1: 0.1665
  AUC, modulator BJ.Pepstatin: 0.1892
  AUC, modulator BJ.TLCK: 0.0155
BJeLR; lethal compound cotreated with modulator atoc
  AUC, modulator BJ.atoc: 0.3276
BJeLR; lethal compound cotreated with modulator trolox
  AUC, modulator BJ.trolox: 0.2492
BJeLR; lethal compound cotreated with modulator zVAD
  AUC, modulator BJ.zVAD: −0.005301

## CC(C)C1CC(CCNCc2ccc3c(c2)OCO3)(c2ccccc2)CCO1 (stereo not shown) [CIL51]
HT-1080
  AUC HT.ATA: 0.003579
  AUC HT.ActD: 0.02697
  AUC HT.BHA: −0.07965
  AUC HT.BHT: −0.08488
  AUC HT.BocD: −0.01458
  AUC HT.CHX: 0.08663
  AUC HT.Co2+: 0.03908
  AUC HT.CspA: 0.00675
  AUC HT.DPQ: 0.0109
  AUC HT.EGTA: 0.04897
  AUC HT.Gd3+: 0.003288
  AUC HT.LNAME: 0.01091
  AUC HT.Lmim: 0.01293
  AUC HT.NAD+: 0.04394
  AUC HT.NMMA: 0.01562
  HT.atoc (AUC): 0.05135
  HT.bCarotene (AUC): 0.03796
  HT.deferox (AUC): 0.004062
  HT.digoxin (AUC): −0.03821
  HT.trolox (AUC): −0.01257
  HT.zVAD (AUC): 0.007799
BJeLR
  AUC, modulator BJ.3MA: 0.05908
  AUC, modulator BJ.ALLN: −0.2032
  AUC, modulator BJ.Boc D: −0.0008828
  AUC, modulator BJ.CHX: 0.1696
  AUC, modulator BJ.Co2+: 0.06399
  AUC, modulator BJ.DPQ: 0.04077
  AUC, modulator BJ.Gd3+: 0.03263
  AUC, modulator BJ.LNAME: −0.04145
  AUC, modulator BJ.Lmin/NAD+: 0.03468
  AUC, modulator BJ.Lmin: −0.07413
  AUC, modulator BJ.NAD+: −0.01737
  AUC, modulator BJ.NMMA: 0.003016
  AUC, modulator BJ.Nec-1: 0.03451
  AUC, modulator BJ.Pepstatin: −0.06742
  AUC, modulator BJ.TLCK: −0.04421

## Cc1cccc(Cn2ncc(Cl)c(Cl)c2=O)c1 [CIL60]
HT-1080
  AUC HT.ATA: 0.07052
  AUC HT.ActD: 0.04832
  AUC HT.BHA: −0.0006407
  AUC HT.BHT: −0.1303
  AUC HT.BocD: −0.04051
  AUC HT.CHX: 0.112
  AUC HT.Co2+: −0.08003
  AUC HT.CspA: −0.004831
  AUC HT.DPQ: 0.02073
  AUC HT.EGTA: 0.05296
  AUC HT.Gd3+: −0.0163
  AUC HT.LNAME: 0.004397
  AUC HT.Lmim: 0.03464
  AUC HT.NAD+: 0.01526
  AUC HT.NMMA: −0.01091
  HT.atoc (AUC): 0.08708
  HT.bCarotene (AUC): 0.04979
  HT.deferox (AUC): 0.07702
  HT.digoxin (AUC): −0.03602
  HT.trolox (AUC): −0.0265
  HT.zVAD (AUC): −0.009922
BJeLR
  AUC, modulator BJ.3MA: 0.06736
  AUC, modulator BJ.ALLN: −0.004197
  AUC, modulator BJ.Boc D: 0.02626
  AUC, modulator BJ.CHX: 0.1803
  AUC, modulator BJ.Co2+: 0.03836
  AUC, modulator BJ.DPQ: 0.02057
  AUC, modulator BJ.Gd3+: 0.02704
  AUC, modulator BJ.LNAME: −0.01542
  AUC, modulator BJ.Lmin/NAD+: 0.05888
  AUC, modulator BJ.Lmin: 0.04196
  AUC, modulator BJ.NAD+: 0.05735
  AUC, modulator BJ.NMMA: −0.03338
  AUC, modulator BJ.Nec-1: 0.08176
  AUC, modulator BJ.Pepstatin: 0.1359
  AUC, modulator BJ.TLCK: −0.06705
